Where two headings read alike, the source gives them in different places.
What was measured:
[1] = test system: Human Rhinovirus 1B (HRV1B) in H1-HeLa cells; assay: H1-HeLa HRV-CTG 384-well Assay (Ex. Y), HRV1B; format: cell-based; conditions: Rhinovirus A, 96 h, read-out: EC50 H1-HeLa_HRV1B_HRV-CTG 384-well Assay (per Ex. Y)
Text: (§1) Example Y: H1-HeLa HRV-CTG 384-well Assay
(§2) H1-Hela cell line (ATCC, Manassas, VA, Cat #CRL-1958) was maintained in Dulbecco's […] (DMEM) (Corning, New York, NY, Cat #15-018CM) supplemented with 10% fetal bovine serum (FBS) (Hyclone, Logan, UT, Cat #SH30071-03), and 1× Penicillin-Streptomycin-L-Glutamine (Corning, New York, NY, Cat #30-009-CI). Cells were passaged 2 times per week to maintain sub-confluent densities and were used for experiments at passage 5-30. The Human Rhinovirus 1B (HRV1B) (ATCC, Manassas, VA, Cat #VR-1645) , Human Rhinovirus 14 (HRV14) (ATCC, Manassas, VA, Cat #VR-284), and Human Rhinovirus 16 (HRV16) (ATCC, Manassas, VA, Cat #BR-283) was obtained through ATCC. Viral infection was monitored by determining viability of H1-HeLa cells as described below.
(§3) Test molecules are prepared in 100% DMSO in 384-well polypropylene plates (Greiner, Monroe, NC, Cat #784201) with 8 compounds per plate in grouped replicates of 4 at 10 serially diluted concentrations (1:3). The serially diluted compounds were transferred to low dead volume Echo plates (Labcyte, Sunnyvale, CA, Cat #LP-0200).
(§4) The test compounds were spotted to 384-well assay plates (Greiner, Monroe, NC, Cat#781091) at 200 nL per well using an Echo acoustic dispenser (Labcyte, Sunnyvale, CA). H1-HeLa cells were harvested and suspended in DMEM (supplemented with 2% FBS and 1× Penicillin-Streptomycin-L-Glutamine) and seeded to the pre-spotted assay plates at 5,000 cells per well in 30 μL. HRV1B, HRV14, and HRV16 was diluted in DMEM (supplemented with 2% FBS and 1× Penicillin-Streptomycin-L-Glutamine) at 97.1 million Infectious Units (IU) per mL, 151 million IU per mL and 221 million IU per mL respectively. 10 μL of virus per well was added to the assay plates containing cells and compounds, for an MOI of 0.5, 1.0, and 0.25 respectively. The assay plates were incubated for 4 days at 37° C. and 5% CO2. At the end of incubation, Celltiter-Glo (Promega, Madison, WI, Cat #(Ga7573) was prepared. The assay plates and Celltiter-Glo reagent were equilibrated to room temperature for at least 15 minutes. 40 μL per well of Celltiter-Glo reagent was added and the plates were incubated at room temperature for 15 minutes before reading the luminescence signal on an EnVision multimode plate reader (Perkin Elmer, Waltham, MA). Rupintrivir was used as positive control and DMSO was used as negative control. Values were normalized to the positive and negative controls (as 0% and 100% replication, respectively) and data was fitted using non-linear regression analysis by Gilead's dose response tool. The EC50 value for each compound was defined as the concentration reducing viral replication by 50%.

[2] = test system: Human Rhinovirus 16 (HRV16) in H1-HeLa cells; assay: H1-HeLa HRV-CTG 384-well Assay (Ex. Y), HRV16; format: cell-based; conditions: Rhinovirus A, 96 h, read-out: EC50 H1-HeLa_HRV16_HRV-CTG 384-well Assay (per Ex. Y)
Text: as §1, §2, §3, §4

[3] = GI S9 stability (Ex. Z), human intestinal S9; format: in vitro ADME; conditions: human intestinal S9, 1.0 mg/mL protein, 2 μM substrate, pH 7.4, read-out: GIS9 Human T½ (per Ex. Z)
Procedure: Example Z: GI S9 stability data:
Stock solutions of test compounds in dimethyl sulfoxide (DMSO) having a final concentration of 10 mM were prepared and used in all experiments. Sekisui XenoTech (Kansas City, KS) provided pooled intestinal S9 fractions. All other chemicals were purchased from Sigma-Aldrich (St. Louis, MO) or VWR (West Chester, PA). Internal Standard/Quench (IS/Q) used to stop reactions was 100 nM labetalol in (by volume) methanol (10%) and acetonitrile (90%).
Stability in Intestinal S9 Fractions: Duplicate aliquots of test compound or positive control substrate were added to S9 stock diluted with phosphate buffered saline (137 mM NaCl, 2.7 mM KCl, 10 mM phosphate buffer), pH 7.4, to obtain a protein concentration of 1.0 mg/mL. The metabolic reactions were initiated by the addition of the substrates to the S9 reaction mixture to a final concentration of 2 μM. At 0, 10, 20, 30, 60 and 120 min, 25 μL aliquots of the reaction mixture were transferred to plates containing 225 μl of IS/Q solution. After quenching, the plates were centrifuged at 3000×g for 30 minutes. 150 μL aliquots of each supernatant were dried down then reconstituted with 300 μL water. Aliquots (10 μL) of the prepared samples were analyzed on a Thermo Q-Exactive mass spectrometer as described below.
Liquid Chromatography—Mass Spectrometry: Quantification of test compounds and control substrate was performed by analyte/internal standard peak area ratio (PAR) values measured on a Thermo Q-Exactive mass spectrometer coupled to a Dionex UltiMate 3000 HPLC with a Leap Technologies HTC PAL autosampler. The column used for analysis was a Waters Acquity BEH C18 (1.7 μm particle size, 2.1×50 mm). Mobile phase A consisted of 0.1% (v/v) formic acid in water. Mobile phase B consisted of 0.1% (v/v) formic acid in acetonitrile. Elution of analytes was achieved by a series of linear gradients varying the proportions of A and B. The mass spectrometer was calibrated on a weekly basis and mass tolerance of 5 ppm was used.
Metabolic stabilities in S9 fractions were determined by measuring the rates of disappearance of test compound and positive control substrate.
Data (% of substrate remaining) were plotted on a semi-log scale and fitted using an exponential decline model:
Where Ct—% of substrate remaining at time=t; C0—% of substrate remaining at time=0; t—time; T½—half-life The Half-life (T½) is determined by the following equation: […]
Assuming a first-order reaction, the slope (k) is extrapolated from the aforementioned plotted data.

[4] = H1-HeLa cells, HRV1B MOI 0.5, 4 days, Celltiter-Glo
[5] = H1-HeLa cells, HRV16 MOI 0.25, 4 days, Celltiter-Glo

| SMILES | EC50 [1, 4] | EC50 [2, 5] | half-life at 2 μM ([3]; pooled intestinal S9 fractions) | EC50 ([1]; HRV1B, H1-HeLa) | EC50 ([2]; HRV16, H1-HeLa) | half-life at 2 μM [3] |
| --- | --- | --- | --- | --- | --- | --- |
| N#C[C@]1(COC(=O)C2CCC2)O[C@@H](c2ccc3c(N)ncnn23)[C@H](O)[C@@H]1O [Compound 8, ((2R,3S,4R,5S)-5-(4-aminopyrrolo[2,1-f][1,2,4]triazin-7-yl)-2-cyano-3,4-dihydroxytetrahydrofuran-2-yl)methyl cyclobutanecarboxylate] | 3.34 µM | 7.74 µM | 4 min |  |  |  |
| N#C[C@]1(COC(=O)C2CCCCC2)O[C@@H](c2ccc3c(N)ncnn23)[C@H](O)[C@@H]1O [Compound 19, ((2R,3S,4R,5S)-5-(4-aminopyrrolo[2,1-f][1,2,4]triazin-7-yl)-2-cyano-3,4-dihydroxytetrahydrofuran-2-yl)methyl cyclohexanecarboxylate] | 4.11 µM | 9.23 µM | 13 min |  |  |  |
| N#C[C@]1(COC(=O)Cc2ccccc2)O[C@@H](c2ccc3c(N)ncnn23)[C@H](O)[C@@H]1O [Compound 38, ((2R,3S,4R,5S)-5-(4-aminopyrrolo[2,1-f][1,2,4]triazin-7-yl)-2-cyano-3,4-dihydroxytetrahydrofuran-2-yl)methyl 2-phenylacetate] |  |  |  | 3.12 µM | 8.44 µM | 28 min |
| CCC(CC)C(=O)OC[C@@]1(C#N)O[C@@H](c2ccc3c(N)ncnn23)[C@H](O)[C@@H]1O [Compound 9, ((2R,3S,4R,5S)-5-(4-aminopyrrolo[2,1-f][1,2,4]triazin-7-yl)-2-cyano-3,4-dihydroxytetrahydrofuran-2-yl)methyl 2-ethylbutanoate] | 21.6 µM | 35.1 µM | 55 min |  |  |  |
| CCC(=O)OC[C@@]1(C#N)O[C@@H](c2ccc3c(N)ncnn23)[C@H](O)[C@@H]1O [Compound 5, ((2R,3S,4R,5S)-5-(4-aminopyrrolo[2,1-f][1,2,4]triazin-7-yl)-2-cyano-3,4-dihydroxytetrahydrofuran-2-yl)methyl propionate] | 8.49 µM | 9.84 µM | 29 min |  |  |  |
| Cc1ccc(C(=O)OC[C@@]2(C#N)O[C@@H](c3ccc4c(N)ncnn34)[C@H](O)[C@@H]2O)cc1 [Compound 14, ((2R,3S,4R,5S)-5-(4-aminopyrrolo[2,1-f][1,2,4]triazin-7-yl)-2-cyano-3,4-dihydroxytetrahydrofuran-2-yl)methyl 4-methylbenzoate] | 9.8 µM | 23.8 µM | 25 min |  |  |  |
| CC1(C(=O)OC[C@@]2(C#N)O[C@@H](c3ccc4c(N)ncnn34)[C@H](O)[C@@H]2O)CCC1 [Compound 24, ((2R,3S,4R,5S)-5-(4-aminopyrrolo[2,1-f][1,2,4]triazin-7-yl)-2-cyano-3,4-dihydroxytetrahydrofuran-2-yl)methyl 1-methylcyclobutane-1-carboxylate] | 3.43 µM | 8.9 µM |  |  |  |  |
| CC(=O)OC[C@@]1(C#N)O[C@@H](c2ccc3c(NC(=O)C(C)C)ncnn23)[C@H](O)[C@@H]1O [Compound 23, ((2R,3S,4R,5S)-2-cyano-3,4-dihydroxy-5-(4-isobutyramidopyrrolo[2,1-f][1,2,4]triazin-7-yl)tetrahydrofuran-2-yl)methyl acetate] | 33.5 µM | 50 µM |  |  |  |  |
| CC(C)(CF)C(=O)OC[C@@]1(C#N)O[C@@H](c2ccc3c(N)ncnn23)[C@H](O)[C@@H]1O [Compound 29, ((2R,3S,4R,5S)-5-(4-aminopyrrolo[2,1-f][1,2,4]triazin-7-yl)-2-cyano-3,4-dihydroxytetrahydrofuran-2-yl)methyl 3-fluoro-2,2-dimethylpropanoate] | 9.37 µM | 22.7 µM |  |  |  |  |
| CC[C@@H](C)C(=O)OC[C@@]1(C#N)O[C@@H](c2ccc3c(N)ncnn23)[C@H](O)[C@@H]1O [Compound 37, ((2R,3S,4R,5S)-5-(4-aminopyrrolo[2,1-f][1,2,4]triazin-7-yl)-2-cyano-3,4-dihydroxytetrahydrofuran-2-yl)methyl (R)-2-methylbutanoate] | 5.71 µM | 9.78 µM |  |  |  |  |
| CC(C)C(=O)O[C@H]1[C@H](c2ccc3c(N)ncnn23)O[C@](C#N)(COC(=O)c2ccccc2)[C@H]1O [Compound 22, ((2R,3S,4R,5S)-5-(4-aminopyrrolo[2,1-f][1,2,4]triazin-7-yl)-2-cyano-3-hydroxy-4-(isobutyryloxy)tetrahydrofuran-2-yl)methyl benzoate] | 12.8 µM | 33.1 µM |  |  |  |  |
| CCC(C)(C)CC(=O)OC[C@@]1(C#N)O[C@@H](c2ccc3c(N)ncnn23)[C@H](O)[C@@H]1O [Compound 27, ((2R,3S,4R,5S)-5-(4-aminopyrrolo[2,1-f][1,2,4]triazin-7-yl)-2-cyano-3,4-dihydroxytetrahydrofuran-2-yl)methyl 3,3-dimethylpentanoate] | 50 µM | 50 µM |  |  |  |  |
| [H]/N=c1/c2ccc([C@@H]3O[C@](C#N)(CO)[C@@H](O)[C@H]3O)n2ncn1COC(=O)C(C)C [Compound 34, (7-((2S,3R,4S,5R)-5-cyano-3,4-dihydroxy-5-(hydroxymethyl)tetrahydrofuran-2-yl)-4-iminopyrrolo[2,1-f][1,2,4]triazin-3(4H)-yl)methyl isobutyrate] | 28.7 µM | 50 µM |  |  |  |  |
| CC(C)(C)CC(=O)Nc1ncnn2c([C@@H]3O[C@](C#N)(COC(=O)CC(C)(C)C)[C@@H](O)[C@H]3O)ccc12 [Compound 26, ((2R,3S,4R,5S)-2-cyano-5-(4-(3,3-dimethylbutanamido)pyrrolo[2,1-f][1,2,4]triazin-7-yl)-3,4-dihydroxytetrahydrofuran-2-yl)methyl 3,3-dimethylbutanoate] | 50 µM | 50 µM |  |  |  |  |

— patent publication US20240199676A1, “ANTIVIRAL COMPOUNDS AND METHODS OF MAKING AND USING THE SAME” (Gilead Sciences, Inc., priority 2022, published 2024)
